How the values were obtained:
[1] = biological target: T1, Serine/threonine-protein kinase 17B (Homo sapiens) (UniProt O94768); assay: Selectivity interaction (KinomeScan (DiscoverX)) EUB0001049a STK17B; details: at 1 µM
T1 sequence (whole entry): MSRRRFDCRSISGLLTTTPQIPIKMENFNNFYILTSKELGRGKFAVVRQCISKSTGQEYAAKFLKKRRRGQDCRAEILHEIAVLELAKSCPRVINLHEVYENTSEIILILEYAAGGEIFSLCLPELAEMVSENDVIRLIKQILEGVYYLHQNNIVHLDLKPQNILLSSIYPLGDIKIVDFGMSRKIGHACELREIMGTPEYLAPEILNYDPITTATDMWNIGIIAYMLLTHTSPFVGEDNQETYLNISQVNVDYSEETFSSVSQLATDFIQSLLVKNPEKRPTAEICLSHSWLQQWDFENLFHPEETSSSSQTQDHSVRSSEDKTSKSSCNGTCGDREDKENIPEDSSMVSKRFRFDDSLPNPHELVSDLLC

[2] = biological target: Phosphatidylinositol 4-phosphate 5-kinase type-1 gamma (Homo sapiens) (UniProt O60331); assay: Selectivity interaction (KinomeScan (DiscoverX)) EUB0000229b PIP5K1C; details: at 10 µM
[3] = biological target: Protein kinase C eta type (Homo sapiens) (UniProt P24723); assay: Selectivity interaction (KinomeScan (DiscoverX)) EUB0000229b PRKCH; details: at 10 µM
[4] = biological target: Death-associated protein kinase 3 (Homo sapiens) (UniProt O43293); assay: Selectivity interaction (Kinase panel (Invitrogen)) EUB0000639a DAPK3; details: at 200 nM
[5] = biological target: Calcium/calmodulin-dependent protein kinase kinase 1 (Homo sapiens) (UniProt Q8N5S9); assay: Selectivity interaction (Ambit KINOMEscan and KiNATiv profiling in Jurkat cells) EUB0000090b CAMKK1; type: cell-based; details: at 1 µM
[6] = biological target: Transient receptor potential cation channel subfamily M member 6 (Homo sapiens) (UniProt Q9BX84); assay: Selectivity interaction (Ambit KINOMEscan and KiNATiv profiling in Jurkat cells) EUB0000090b TRPM6; type: cell-based; details: at 1 µM
[7] = biological target: Ephrin type-A receptor 7 (Homo sapiens) (UniProt Q15375); assay: Selectivity interaction (KinomeScan (DiscoverX)) EUB0000618a EPHA7; details: at 10 µM
[8] = biological target: Serine/threonine-protein kinase 33 (Homo sapiens) (UniProt Q9BYT3); assay: Selectivity interaction (KinomeScan (DiscoverX)) EUB0001619a STK33; details: at 1 µM
[9] = biological target: Serine/threonine-protein kinase MARK1 (Homo sapiens) (UniProt Q9P0L2); assay: Selectivity interaction (KinomeScan (DiscoverX)) EUB0000695a MARK1; details: at 100 nM
[10] = biological target: PXR (NR1I2) (Homo sapiens, UniProt O75469); assay: Selectivity interaction (Panel of kinases, GPCRs, ion channels and transporters (enzymatic assay)) EUB0000266bCl NR1I2
[11] = biological target: Serine/threonine-protein kinase 25 (Homo sapiens) (UniProt O00506); assay: Selectivity interaction (KinomeScan (DiscoverX)) EUB0000607a STK25; details: at 10 µM
[12] = biological target: Tyrosine-protein kinase SYK (Homo sapiens, UniProt P43405); assay: Selectivity interaction (KinomeScan (DiscoverX)) EUB0000607a SYK; details: at 10 µM
[13] = biological target: T2, Inhibitor of nuclear factor kappa-B kinase subunit beta (Homo sapiens) (UniProt O14920); assay: Selectivity interaction (ProQinase) EUB0000171b IKBKB
T2 sequence (whole entry): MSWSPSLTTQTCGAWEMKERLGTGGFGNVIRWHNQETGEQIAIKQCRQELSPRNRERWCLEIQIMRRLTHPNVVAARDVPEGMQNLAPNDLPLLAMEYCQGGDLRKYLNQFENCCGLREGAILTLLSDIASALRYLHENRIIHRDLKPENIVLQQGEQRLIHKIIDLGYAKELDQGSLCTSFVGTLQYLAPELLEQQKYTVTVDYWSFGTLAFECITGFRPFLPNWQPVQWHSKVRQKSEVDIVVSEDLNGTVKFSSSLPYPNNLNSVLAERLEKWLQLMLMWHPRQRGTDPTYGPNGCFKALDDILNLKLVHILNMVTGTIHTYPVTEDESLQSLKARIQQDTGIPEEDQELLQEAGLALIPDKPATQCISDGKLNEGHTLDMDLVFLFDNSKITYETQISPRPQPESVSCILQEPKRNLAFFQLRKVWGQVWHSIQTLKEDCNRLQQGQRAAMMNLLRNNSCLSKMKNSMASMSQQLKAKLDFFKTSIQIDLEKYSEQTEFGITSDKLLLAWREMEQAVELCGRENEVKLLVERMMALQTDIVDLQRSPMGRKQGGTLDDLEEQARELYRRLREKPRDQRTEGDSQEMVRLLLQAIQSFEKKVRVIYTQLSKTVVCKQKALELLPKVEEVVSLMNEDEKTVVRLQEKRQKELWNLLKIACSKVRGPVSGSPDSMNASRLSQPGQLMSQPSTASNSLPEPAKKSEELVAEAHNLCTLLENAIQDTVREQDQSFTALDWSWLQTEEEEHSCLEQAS

[14] = biological target: T3, Serine/threonine-protein kinase Nek2 (Homo sapiens) (UniProt P51955); assay: Selectivity interaction (ProQinase) EUB0000171b NEK2
T3 sequence (whole entry): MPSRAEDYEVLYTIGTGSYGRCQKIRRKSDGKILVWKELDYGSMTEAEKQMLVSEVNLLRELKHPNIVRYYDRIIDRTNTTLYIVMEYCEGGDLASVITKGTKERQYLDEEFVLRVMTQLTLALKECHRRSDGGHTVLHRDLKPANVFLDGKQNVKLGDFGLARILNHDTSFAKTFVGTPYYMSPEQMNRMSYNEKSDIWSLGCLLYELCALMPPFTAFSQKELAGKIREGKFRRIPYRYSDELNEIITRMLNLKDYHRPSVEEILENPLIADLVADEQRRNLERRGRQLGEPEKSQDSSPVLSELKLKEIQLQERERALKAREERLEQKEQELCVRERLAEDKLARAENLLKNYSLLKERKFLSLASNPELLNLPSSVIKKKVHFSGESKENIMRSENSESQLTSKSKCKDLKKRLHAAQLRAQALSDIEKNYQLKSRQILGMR

[15] = biological target: Protein kinase C theta type (Homo sapiens, UniProt Q04759); assay: Selectivity interaction (ProQinase) EUB0000171b PRKCQ
Protein kinase C theta type, sequence (Q04759 whole entry, looked up): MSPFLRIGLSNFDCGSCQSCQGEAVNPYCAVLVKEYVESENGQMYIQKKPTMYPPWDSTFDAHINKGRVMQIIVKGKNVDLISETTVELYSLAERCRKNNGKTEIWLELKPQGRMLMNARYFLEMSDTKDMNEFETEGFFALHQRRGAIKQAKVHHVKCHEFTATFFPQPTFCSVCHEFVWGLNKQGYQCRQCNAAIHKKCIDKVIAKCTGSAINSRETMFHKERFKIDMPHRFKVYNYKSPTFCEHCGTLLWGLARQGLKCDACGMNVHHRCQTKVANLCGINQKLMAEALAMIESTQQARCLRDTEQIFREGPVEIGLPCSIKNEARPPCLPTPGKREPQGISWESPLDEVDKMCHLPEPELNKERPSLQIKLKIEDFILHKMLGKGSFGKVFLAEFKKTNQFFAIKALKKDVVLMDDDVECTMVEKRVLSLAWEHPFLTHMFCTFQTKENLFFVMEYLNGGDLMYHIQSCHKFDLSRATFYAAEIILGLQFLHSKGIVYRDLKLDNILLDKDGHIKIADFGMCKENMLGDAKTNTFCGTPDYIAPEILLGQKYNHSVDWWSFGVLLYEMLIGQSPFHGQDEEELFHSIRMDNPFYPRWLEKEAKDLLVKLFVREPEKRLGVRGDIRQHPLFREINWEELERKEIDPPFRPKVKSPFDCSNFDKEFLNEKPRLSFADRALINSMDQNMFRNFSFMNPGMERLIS

Serine/threonine-protein kinase 25 (Homo sapiens), sequence (O00506 whole entry, looked up): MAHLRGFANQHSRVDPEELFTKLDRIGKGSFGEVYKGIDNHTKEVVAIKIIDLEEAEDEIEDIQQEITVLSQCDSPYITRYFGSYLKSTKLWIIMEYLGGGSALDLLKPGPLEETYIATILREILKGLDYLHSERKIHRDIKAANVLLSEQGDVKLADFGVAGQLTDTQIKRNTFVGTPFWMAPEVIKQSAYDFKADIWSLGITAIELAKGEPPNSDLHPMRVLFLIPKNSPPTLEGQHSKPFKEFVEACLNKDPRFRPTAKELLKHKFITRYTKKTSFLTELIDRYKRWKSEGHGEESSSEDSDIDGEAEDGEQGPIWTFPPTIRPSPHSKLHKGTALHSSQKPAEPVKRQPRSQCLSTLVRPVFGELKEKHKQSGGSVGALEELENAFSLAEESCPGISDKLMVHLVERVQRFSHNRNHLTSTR
Transient receptor potential cation channel subfamily M member 6 (Homo sapiens), sequence (Q9BX84 whole entry): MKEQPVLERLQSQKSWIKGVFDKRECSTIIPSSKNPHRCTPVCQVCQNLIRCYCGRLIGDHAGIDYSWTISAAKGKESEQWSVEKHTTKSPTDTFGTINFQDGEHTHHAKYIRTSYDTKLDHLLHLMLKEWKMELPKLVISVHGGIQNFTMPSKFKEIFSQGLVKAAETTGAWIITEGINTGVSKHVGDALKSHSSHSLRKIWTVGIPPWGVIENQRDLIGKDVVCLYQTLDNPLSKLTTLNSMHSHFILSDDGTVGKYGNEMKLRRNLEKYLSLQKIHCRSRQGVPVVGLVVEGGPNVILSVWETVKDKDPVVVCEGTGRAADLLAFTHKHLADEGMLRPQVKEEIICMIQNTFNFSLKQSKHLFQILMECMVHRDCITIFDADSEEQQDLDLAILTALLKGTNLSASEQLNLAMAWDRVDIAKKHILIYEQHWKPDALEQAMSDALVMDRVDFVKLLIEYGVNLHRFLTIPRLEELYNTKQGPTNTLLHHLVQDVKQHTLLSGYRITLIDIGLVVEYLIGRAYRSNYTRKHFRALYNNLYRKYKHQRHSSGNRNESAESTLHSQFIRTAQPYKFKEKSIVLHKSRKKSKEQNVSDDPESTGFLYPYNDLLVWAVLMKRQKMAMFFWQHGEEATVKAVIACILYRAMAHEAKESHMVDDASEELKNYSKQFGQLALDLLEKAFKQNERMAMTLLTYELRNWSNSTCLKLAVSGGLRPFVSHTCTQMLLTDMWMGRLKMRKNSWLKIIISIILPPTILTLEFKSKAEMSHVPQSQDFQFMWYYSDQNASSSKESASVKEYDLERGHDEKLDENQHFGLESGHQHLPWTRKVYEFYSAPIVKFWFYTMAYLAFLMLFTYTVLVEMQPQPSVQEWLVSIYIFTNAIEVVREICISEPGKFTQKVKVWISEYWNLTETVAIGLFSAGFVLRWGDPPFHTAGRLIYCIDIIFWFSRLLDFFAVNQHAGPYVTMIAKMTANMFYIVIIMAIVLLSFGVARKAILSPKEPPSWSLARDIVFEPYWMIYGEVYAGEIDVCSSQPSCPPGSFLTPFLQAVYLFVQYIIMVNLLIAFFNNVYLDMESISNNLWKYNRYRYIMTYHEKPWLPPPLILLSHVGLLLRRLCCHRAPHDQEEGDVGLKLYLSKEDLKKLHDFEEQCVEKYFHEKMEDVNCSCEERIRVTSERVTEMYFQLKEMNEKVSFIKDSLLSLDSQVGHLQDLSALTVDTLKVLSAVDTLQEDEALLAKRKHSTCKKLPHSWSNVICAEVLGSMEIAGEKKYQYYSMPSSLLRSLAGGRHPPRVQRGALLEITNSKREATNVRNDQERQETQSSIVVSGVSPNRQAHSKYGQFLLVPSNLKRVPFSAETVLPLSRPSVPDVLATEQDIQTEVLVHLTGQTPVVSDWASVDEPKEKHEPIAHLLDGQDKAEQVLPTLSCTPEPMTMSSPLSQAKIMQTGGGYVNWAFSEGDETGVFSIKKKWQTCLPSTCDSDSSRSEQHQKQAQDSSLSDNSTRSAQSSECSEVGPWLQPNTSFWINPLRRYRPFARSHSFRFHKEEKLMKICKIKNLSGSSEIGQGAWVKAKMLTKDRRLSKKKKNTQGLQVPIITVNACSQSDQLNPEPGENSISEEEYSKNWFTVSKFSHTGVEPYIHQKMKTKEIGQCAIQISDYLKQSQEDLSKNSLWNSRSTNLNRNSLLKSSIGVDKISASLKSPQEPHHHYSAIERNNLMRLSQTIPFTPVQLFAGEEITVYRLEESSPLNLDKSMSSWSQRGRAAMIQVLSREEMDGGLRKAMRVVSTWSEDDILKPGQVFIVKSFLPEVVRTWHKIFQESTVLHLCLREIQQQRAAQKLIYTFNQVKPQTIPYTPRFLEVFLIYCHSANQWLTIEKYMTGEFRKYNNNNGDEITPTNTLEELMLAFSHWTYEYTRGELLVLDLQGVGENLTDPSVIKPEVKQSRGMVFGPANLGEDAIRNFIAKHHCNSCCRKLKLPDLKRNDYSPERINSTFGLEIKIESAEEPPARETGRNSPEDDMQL
Ephrin type-A receptor 7 (Homo sapiens), sequence (Q15375 28-998 limits assumed): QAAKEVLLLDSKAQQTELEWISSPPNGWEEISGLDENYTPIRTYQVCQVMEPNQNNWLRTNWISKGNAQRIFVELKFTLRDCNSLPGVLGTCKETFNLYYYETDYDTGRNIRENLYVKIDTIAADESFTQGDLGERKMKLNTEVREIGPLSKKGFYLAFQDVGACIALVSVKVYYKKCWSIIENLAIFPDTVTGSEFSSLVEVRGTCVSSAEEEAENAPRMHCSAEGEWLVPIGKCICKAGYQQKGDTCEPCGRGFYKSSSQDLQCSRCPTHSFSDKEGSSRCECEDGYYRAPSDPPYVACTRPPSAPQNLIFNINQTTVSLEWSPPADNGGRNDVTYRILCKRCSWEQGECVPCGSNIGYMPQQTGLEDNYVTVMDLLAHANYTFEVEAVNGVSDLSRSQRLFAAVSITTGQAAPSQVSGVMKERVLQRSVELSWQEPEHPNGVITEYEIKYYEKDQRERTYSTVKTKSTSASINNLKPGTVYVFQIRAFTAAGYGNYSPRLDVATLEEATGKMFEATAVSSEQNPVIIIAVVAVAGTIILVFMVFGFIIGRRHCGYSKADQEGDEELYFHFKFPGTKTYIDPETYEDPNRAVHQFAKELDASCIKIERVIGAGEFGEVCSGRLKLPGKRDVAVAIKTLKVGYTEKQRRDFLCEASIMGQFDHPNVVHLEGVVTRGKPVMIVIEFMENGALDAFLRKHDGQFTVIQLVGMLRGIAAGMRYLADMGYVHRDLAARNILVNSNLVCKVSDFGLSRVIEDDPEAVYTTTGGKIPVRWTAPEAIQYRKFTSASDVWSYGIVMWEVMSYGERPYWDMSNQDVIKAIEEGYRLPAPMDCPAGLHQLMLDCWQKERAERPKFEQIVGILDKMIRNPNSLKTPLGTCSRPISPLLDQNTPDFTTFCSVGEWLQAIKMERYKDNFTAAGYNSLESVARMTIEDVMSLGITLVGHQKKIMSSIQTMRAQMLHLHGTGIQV
Death-associated protein kinase 3 (Homo sapiens), sequence (O43293 whole entry, looked up): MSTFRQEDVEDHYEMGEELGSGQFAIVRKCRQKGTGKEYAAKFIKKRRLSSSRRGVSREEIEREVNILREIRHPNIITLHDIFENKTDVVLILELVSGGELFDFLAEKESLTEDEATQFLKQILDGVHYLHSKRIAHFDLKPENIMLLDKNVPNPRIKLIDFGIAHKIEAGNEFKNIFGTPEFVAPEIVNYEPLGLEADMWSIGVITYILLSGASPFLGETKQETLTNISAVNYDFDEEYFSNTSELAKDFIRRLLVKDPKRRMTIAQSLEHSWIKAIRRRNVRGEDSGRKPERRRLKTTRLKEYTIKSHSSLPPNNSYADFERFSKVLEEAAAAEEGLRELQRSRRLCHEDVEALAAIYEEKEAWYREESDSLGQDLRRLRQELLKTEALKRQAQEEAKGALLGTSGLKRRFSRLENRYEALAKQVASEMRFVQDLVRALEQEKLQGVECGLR
Serine/threonine-protein kinase 33 (Homo sapiens), sequence (Q9BYT3 whole entry, looked up): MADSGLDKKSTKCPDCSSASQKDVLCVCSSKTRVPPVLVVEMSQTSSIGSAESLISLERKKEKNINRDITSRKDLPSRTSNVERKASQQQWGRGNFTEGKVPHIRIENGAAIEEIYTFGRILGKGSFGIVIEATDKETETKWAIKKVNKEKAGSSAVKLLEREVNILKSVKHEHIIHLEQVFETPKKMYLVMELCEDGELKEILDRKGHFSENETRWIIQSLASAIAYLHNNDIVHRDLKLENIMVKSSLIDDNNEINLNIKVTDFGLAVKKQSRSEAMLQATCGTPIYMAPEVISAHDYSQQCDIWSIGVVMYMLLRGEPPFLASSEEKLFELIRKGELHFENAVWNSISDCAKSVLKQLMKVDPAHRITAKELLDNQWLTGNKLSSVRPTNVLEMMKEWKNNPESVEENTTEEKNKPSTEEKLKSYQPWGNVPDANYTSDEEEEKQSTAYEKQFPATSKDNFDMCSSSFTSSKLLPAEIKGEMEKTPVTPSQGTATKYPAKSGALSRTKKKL

`COc1cc(Nc2nc(C)cc(-c3cnn4nc(OC)ccc34)n2)cc(C(F)(F)F)c1` gave a % of control [1] of 81%.

`COc1cc(N(C)c2ccnc3ccc(C(F)(F)F)cc23)cc(OC)c1OC` was tested, and the % binding [2] was 53% and the % binding [3] was 96%.

`CC[C@@H]1[C@H](F)C(=O)N[C@@H]1COc1nccc2cc(C(N)=O)c(OC)cc12` [ZIMLOVISERTIB] was tested, and the % of inhibition [4] was 20.3%.

`CN(C)C/C=C/C(=O)Nc1ccc(C(=O)N2CCCC(Nc3ncc(Cl)c(-c4c[nH]c5ccccc45)n3)C2)cc1` (stereo not drawn) gave a % of control [5] of 92% and a % of control [6] of 88%.

`O[C@H]1CC[C@H](Nc2ncc3nc(Nc4c(F)cc(F)cc4F)n([C@H]4CCOC4)c3n2)CC1` showed a % of control [7] of 100%.

Work on `N#Cc1cccc(-c2c[nH]c3ncnc(N4CCOCC4)c23)c1` yielded a % of control [8] of 60%.

Work on `Cc1cc(F)c(C(=O)Nc2cccc(-c3nncn3C(C)C)n2)cc1-n1cnc(C2CC2)c1` yielded a % of control [9] of 100%.

`CCn1c(-c2nc3cc(C(=O)N4CCCC(N)C4)ccc3n2C)cc2ccccc21` (stereo not drawn) showed an XC50 [10] greater than 50.1 µM.

In the case of `CNC(=O)Nc1ccc(-c2nc(N3CC4CCC(C3)O4)c3cnn(C4CCC5(CC4)OCCO5)c3n2)cc1`, the % of control [11] is reported as 91% and the % of control [12] is reported as 100%.

For `C=CC(=O)Nc1cccc(C(=O)Nc2ccc(Nc3cc(-c4[nH]c(SC)nc4C)ccn3)cc2)c1`, the % of control ([13]; at 1 µM) was 77%, the % of control ([13]; at 5 µM) was 63% and the % of control ([14]; at 1 µM) was 92%. It also gave a % of control ([14]; at 5 µM) of 78%, a % of control ([15]; at 1 µM) of 97% and a % of control ([15]; at 5 µM) of 96%.
